From ChEMBL document CHEMBL5214960 (J Med Chem, 2022)
Substitutions are numbered along the chain they refer to. ≈ marks a conversion by molar mass, not a printed value.

Key:
[1] = target: T1, Low molecular weight phosphotyrosine protein phosphatase (Homo sapiens, UniProt P24666); test: Inhibition of His-tagged human LMW-PTP expressed in Escherichia coli BL21 using pNPP as substrate incubated for 10 mins by microplate reader based spectrophotometric analysis
T1 sequence (P24666 whole entry): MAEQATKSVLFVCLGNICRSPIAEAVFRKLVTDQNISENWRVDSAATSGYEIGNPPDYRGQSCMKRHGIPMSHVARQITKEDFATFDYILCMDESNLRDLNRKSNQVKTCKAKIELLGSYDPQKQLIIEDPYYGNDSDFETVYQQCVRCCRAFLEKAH

[2] = target: T2, Low molecular weight phosphotyrosine protein phosphatase (Mus musculus, UniProt Q9D358); test: Inhibition of N-terminal His-tagged full length mouse LMW-PTP expressed in Escherichia coli BL21(DE3) by […] analysis
T2 sequence (Q9D358 whole entry): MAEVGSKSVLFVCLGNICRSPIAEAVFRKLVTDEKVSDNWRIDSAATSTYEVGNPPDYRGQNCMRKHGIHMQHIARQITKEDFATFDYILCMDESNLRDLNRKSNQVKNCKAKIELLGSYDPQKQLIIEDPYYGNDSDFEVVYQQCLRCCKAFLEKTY

[3] = Aqueous solubility of compound at pH 6 by HPLC analysis; assay type: physicochemical; details: buffer
CYP2D6 = CYP2D6 (Homo sapiens, UniProt P10635); test: Inhibition of human hepatic CYP2D6 using bufuralol HCL as substrate measured after 3 mins by LC-MS analysis relative to control; assay type: ADME, tissue-based; set-up: concentration or dose not given beside the values; details: human hepatic CYP2D6 (liver), probe bufuralol HCl
CYP2C9 = CYP2C9 (Homo sapiens, UniProt P11712); test: Inhibition of human hepatic CYP2C9 using diclofenac as substrate measured after 10 mins by LC-MS analysis relative to control; assay type: ADME, tissue-based; set-up: concentration or dose not given beside the values; details: human hepatic CYP2C9 (liver), probe diclofenac
CYP3A4 = CYP3A4 (Homo sapiens, UniProt P08684); test: Inhibition of human hepatic CYP3A4 using midazolam as substrate measured after 3 mins by LC-MS analysis relative to control; assay type: ADME, tissue-based; set-up: concentration or dose not given beside the values; details: human hepatic CYP3A4 (liver), probe midazolam
[4] = Metabolic stability in human hepatic microsome at 4 uM measured after 30 mins by LC-MS analysis; assay type: ADME; details: liver microsomes, read-out: Stability
[5] = Metabolic stability in mouse hepatic microsome at 4 uM measured after 30 mins by LC-MS analysis; assay type: ADME; details: liver microsomes, read-out: Stability
[6] = Metabolic stability in dog hepatic microsome at 4 uM measured after 30 mins by LC-MS analysis; assay type: ADME, Canis lupus familiaris; details: liver microsomes, read-out: Stability
[7] = Plasma protein binding in mouse assessed as unbound fraction measured after 4.5 hrs by LC-MS/MS analysis; assay type: ADME, cell-free
[8] = AUC(0 to 8 hrs) in CD-1 mouse plasma at 10 mg/kg, po measured after 8 hrs by LC-MS/MS analysis; assay type: ADME, organism-based; set-up: dose 10 mg/kg, time 8 hrs, route po; details: in vivo
[9] = AUC(0 to 8 hrs) in CD-1 mouse plasma at 2 mg/kg, iv measured after 8 hrs by LC-MS/MS analysis; assay type: ADME, organism-based; set-up: dose 2 mg/kg, time 8 hrs, route iv; details: in vivo
[10] = Cmax in CD-1 mouse plasma at 10 mg/kg, po measured after 8 hrs by LC-MS/MS analysis; assay type: ADME, organism-based; set-up: dose 10 mg/kg, time 8 hrs, route po; details: mouse, in vivo, 8 h
[11] = Cmax in CD-1 mouse plasma at 2 mg/kg, iv measured after 8 hrs by LC-MS/MS analysis; assay type: ADME, organism-based; set-up: time 8 hrs, dose 2 mg/kg, route iv
[12] = Unbound Cmax in plasma of CD-1 mouse at 10 mg/kg, po measured after 8 hrs by LC-MS/MS analysis; assay type: ADME, organism-based; details: in vivo
[13] = Unbound Cmax in plasma of CD-1 mouse at 2 mg/kg, iv measured after 8 hrs by LC-MS/MS analysis; assay type: ADME, organism-based; details: in vivo
[14] = Volume of distribution at steady state in CD-1 mouse plasma at 2 mg/kg, iv measured after 8 hrs by LC-MS/MS analysis; assay type: ADME, organism-based; details: in vivo
[15] = Half life in CD-1 mouse plasma at 2 mg/kg, iv measured after 8 hrs by LC-MS/MS analysis; assay type: ADME, organism-based; details: mouse, in vivo, iv, 2 mg/kg, 8 h
[16] = Half life in CD-1 mouse plasma at 10 mg/kg, po measured after 8 hrs by LC-MS/MS analysis; assay type: ADME, organism-based; details: in vivo
[17] = Oral bioavailability in CD-1 mouse plasma at 10 mg/kg measured after 8 hrs by LC-MS/MS analysis; assay type: ADME, organism-based
[18] = AUC(0 to 12 hrs) in Sprague-Dawley rat plasma at 30 mg/kg, po measured after 24 hrs by LC-MS/MS analysis; assay type: ADME, organism-based; set-up: time 24 hrs, dose 30 mg/kg, route po; details: in vivo
[19] = Cmax in Sprague-Dawley rat plasma at 30 mg/kg, po measured after 24 hrs by LC-MS/MS analysis; assay type: ADME, organism-based; set-up: time 24 hrs, dose 30 mg/kg, route po; details: in vivo
[20] = Unbound Cmax in plasma of Sprague-Dawley rat at 30 mg/kg, po measured after 24 hrs by LC-MS/MS analysis; assay type: ADME, organism-based; details: in vivo
[21] = Tmax in Sprague-Dawley rat plasma at 30 mg/kg, po measured after 24 hrs by LC-MS/MS analysis; assay type: ADME, organism-based; details: in vivo
[22] = Half life in Sprague-Dawley rat plasma at 30 mg/kg, po measured after 24 hrs by LC-MS/MS analysis; assay type: ADME, organism-based; details: in vivo
[23] = target: T3, Low molecular weight phosphotyrosine protein phosphatase (Rattus norvegicus, UniProt P41498); test: Inhibition of N-terminal His-tagged full length rat LMW-PTP expressed in Escherichia coli BL21(DE3)
T3 sequence (P41498 whole entry): T2 sequence (Q9D358 whole entry) with K35N, R65K, K80R, Y158H

[24] = Inhibition of PTP-Meg2 (unknown origin); set-up: species or system Homo sapiens

Chain of CYP2D6 (P10635 whole entry): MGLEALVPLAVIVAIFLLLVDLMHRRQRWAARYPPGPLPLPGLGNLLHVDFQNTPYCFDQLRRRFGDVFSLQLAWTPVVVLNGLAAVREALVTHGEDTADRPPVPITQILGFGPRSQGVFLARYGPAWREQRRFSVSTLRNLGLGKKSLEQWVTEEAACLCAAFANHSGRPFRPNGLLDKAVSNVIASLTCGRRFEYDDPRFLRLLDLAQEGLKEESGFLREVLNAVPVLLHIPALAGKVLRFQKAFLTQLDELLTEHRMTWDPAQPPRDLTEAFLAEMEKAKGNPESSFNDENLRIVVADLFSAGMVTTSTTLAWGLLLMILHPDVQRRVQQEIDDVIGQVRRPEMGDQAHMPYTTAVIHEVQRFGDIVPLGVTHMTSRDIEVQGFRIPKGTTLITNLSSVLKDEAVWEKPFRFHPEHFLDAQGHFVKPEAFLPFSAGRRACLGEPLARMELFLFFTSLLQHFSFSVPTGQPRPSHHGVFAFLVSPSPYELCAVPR
Chain of CYP3A4 (P08684 whole entry): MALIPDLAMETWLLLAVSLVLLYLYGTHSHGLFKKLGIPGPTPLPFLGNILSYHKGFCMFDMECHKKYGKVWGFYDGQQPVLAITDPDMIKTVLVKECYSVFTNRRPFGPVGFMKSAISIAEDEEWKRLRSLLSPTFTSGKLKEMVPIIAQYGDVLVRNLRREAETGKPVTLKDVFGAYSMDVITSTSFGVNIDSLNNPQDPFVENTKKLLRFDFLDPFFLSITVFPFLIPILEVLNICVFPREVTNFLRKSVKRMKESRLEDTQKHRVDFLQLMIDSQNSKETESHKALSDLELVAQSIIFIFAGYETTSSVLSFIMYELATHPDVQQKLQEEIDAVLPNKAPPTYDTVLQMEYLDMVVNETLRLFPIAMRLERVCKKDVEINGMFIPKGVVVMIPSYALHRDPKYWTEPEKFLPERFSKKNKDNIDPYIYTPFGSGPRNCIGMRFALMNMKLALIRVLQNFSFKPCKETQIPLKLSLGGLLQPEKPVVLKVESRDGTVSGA
Chain of CYP2C9 (P11712 whole entry): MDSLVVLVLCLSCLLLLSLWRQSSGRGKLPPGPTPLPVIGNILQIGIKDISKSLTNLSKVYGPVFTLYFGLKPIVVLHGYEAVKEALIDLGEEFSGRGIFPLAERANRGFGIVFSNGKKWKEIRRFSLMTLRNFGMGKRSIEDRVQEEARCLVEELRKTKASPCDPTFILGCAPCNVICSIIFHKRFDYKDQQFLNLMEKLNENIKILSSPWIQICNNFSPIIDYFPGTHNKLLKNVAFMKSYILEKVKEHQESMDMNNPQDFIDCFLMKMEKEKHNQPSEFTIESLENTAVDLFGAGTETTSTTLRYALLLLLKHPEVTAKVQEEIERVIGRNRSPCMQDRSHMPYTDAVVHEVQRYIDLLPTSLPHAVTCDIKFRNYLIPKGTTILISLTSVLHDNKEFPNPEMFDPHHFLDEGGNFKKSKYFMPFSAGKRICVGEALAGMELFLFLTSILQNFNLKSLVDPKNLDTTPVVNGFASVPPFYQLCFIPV

SMILES: O=C(CS(=O)(=O)O)Nc1nc2ccc(C(F)(F)F)cc2s1
- IC50 [1]: 600 nM

SMILES: O=C(CS(=O)(=O)O)Nc1cnc(N2CCOCC2)c(Br)c1
- IC50 [1]: 1200 nM

SMILES: O=C(CS(=O)(=O)O)Nc1ccc(N2CCOCC2)c(Br)c1
- IC50 [2]: 36 nM
- IC50 [1]: 1500 nM
- solubility [3]: 760 µg/mL (≈ 2000 µM)
- inhibition at 0.05 h (CYP2D6): 20%
- inhibition at 10 min (CYP2C9): 64%
- inhibition at 0.05 h (CYP3A4): 36%
- remaining at 0.5 h, 4 µM [4]: 3%
- remaining at 0.5 h, 4 µM [5]: 3%
- remaining at 0.5 h, 4 µM [6]: 11%
- Fu [7]: 0.243
- AUC [8]: 1.94 µM·h
- AUC [9]: 1.72 µM·h
- Cmax [10]: 483 nM
- Cmax [11]: 8090 nM
- fCmax [12]: 117 nM
- fCmax [13]: 1966 nM
- Vdss [14]: 0.73 L/kg
- t1/2 [15]: 0.2 h
- t1/2 [16]: 4.2 h
- F ([17]; mouse, in vivo, po, 10 mg/kg, 8 h): 23%
- AUC [18]: 1.23 µM·h
- Cmax [19]: 258 nM
- fCmax [20]: 43 nM
- Tmax [21]: 1 h
- t1/2 [22]: 6.8 h
- IC50 [23]: 36 nM

SMILES: O=C(CS(=O)(=O)O)Nc1nc2ccc(C(=O)N3CCCC3)cc2s1
- IC50 [1]: 300 nM

SMILES: O=C(CS(=O)(=O)O)Nc1cc(Br)cc([N+](=O)[O-])c1
- IC50 [1]: 3400 nM

SMILES: O=C(Nc1nc2ccccc2s1)C(c1ccccc1)S(=O)(=O)O (centres undefined)
- solubility [3]: 660 µg/mL (≈ 1890 µM)
- inhibition at 0.05 h (CYP2D6): 5%
- inhibition at 10 min (CYP2C9): 69%
- inhibition at 0.05 h (CYP3A4): 9%
- remaining at 0.5 h, 4 µM [4]: 54%
- remaining at 0.5 h, 4 µM [5]: 17%
- remaining at 0.5 h, 4 µM [6]: 61%
- Fu [7]: < 0.006

SMILES: Cc1ccc2nc(NC(=O)CS(=O)(=O)O)sc2c1
- IC50 [1]: 1700 nM

SMILES: Cc1cc([N+](=O)[O-])c2nc(NC(=O)CS(=O)(=O)O)sc2c1
- IC50 [1]: 400 nM

SMILES: Cc1c(Br)cc(NC(=O)[C@@H](c2cncs2)S(=O)(=O)O)cc1Br
- IC50 [1]: 11400 nM

SMILES: O=C(CS(=O)(=O)O)Nc1nc2ccc([N+](=O)[O-])cc2s1
- IC50 [1]: 200 nM
- solubility [3]: 590 µg/mL (≈ 1860 µM)
- inhibition at 0.05 h (CYP2D6): 1%
- inhibition at 10 min (CYP2C9): 0%
- inhibition at 0.05 h (CYP3A4): 0%
- remaining at 0.5 h, 4 µM [4]: 53%
- remaining at 0.5 h, 4 µM [5]: 4%
- remaining at 0.5 h, 4 µM [6]: 7%
- Fu [7]: 0.057

SMILES: CS(=O)(=O)c1ccc2nc(NC(=O)CS(=O)(=O)O)sc2c1
- IC50 [1]: 300 nM

SMILES: O=C(CS(=O)(=O)O)Nc1cc(Br)cc2ccccc12
- IC50 [1]: 6000 nM

SMILES: Cc1c(Br)cc(NC(=O)[C@@H](C#N)S(=O)(=O)O)cc1Br
- IC50 [1]: 4400 nM

SMILES: O=C(CS(=O)(=O)O)Nc1cc(I)cc(I)c1
- IC50 [1]: 3400 nM

SMILES: O=C(CS(=O)(=O)O)Nc1nccs1
- IC50 [1]: 12200 nM

SMILES: N.O=C(Nc1nc2ccccc2s1)NS(=O)(=O)O
- IC50 [1]: 56 nM
- inhibition at 0.05 h (CYP2D6): 0%
- inhibition at 10 min (CYP2C9): 0%
- inhibition at 0.05 h (CYP3A4): 4%
- remaining at 0.5 h, 4 µM [4]: 7%
- remaining at 0.5 h, 4 µM [5]: 0%
- remaining at 0.5 h, 4 µM [6]: 0%
- Fu [7]: 0.07

SMILES: O=C(CS(=O)(=O)O)Nc1nc2cccc([N+](=O)[O-])c2s1
- IC50 [1]: 1500 nM

SMILES: O=C(Nc1ccccc1)NS(=O)(=O)O
- IC50 [1]: 121 nM

SMILES: O=C(Nc1nccs1)NS(=O)(=O)O
- IC50 [1]: 49 nM

SMILES: O=C(CS(=O)(=O)O)Nc1ccccc1
- IC50 [1]: > 100000 nM

SMILES: O=C(CS(=O)(=O)O)Nc1ncc(-c2ccccc2)s1
- IC50 [1]: 1500 nM

SMILES: O=C(CS(=O)(=O)O)Nc1cc(Br)cc(Br)c1
- IC50 [1]: 6000 nM

SMILES: O=C(CS(=O)(=O)O)Nc1cc(Cl)cc(Cl)c1
- IC50 [1]: 8600 nM

SMILES: O=C(CS(=O)(=O)O)Nc1cnc2ncccc2c1
- IC50 [1]: 1500 nM

SMILES: O=C(CS(=O)(=O)O)Nc1nc2cc([N+](=O)[O-])ccc2s1
- IC50 [1]: 400 nM

SMILES: O=C(CS(=O)(=O)O)Nc1nc2ccccc2s1
- solubility [3]: 530 µg/mL (≈ 1950 µM)
- inhibition at 0.05 h (CYP2D6): 0%
- inhibition at 10 min (CYP2C9): 1%
- inhibition at 0.05 h (CYP3A4): 6%
- remaining at 0.5 h, 4 µM [4]: 18%
- remaining at 0.5 h, 4 µM [5]: 3%
- remaining at 0.5 h, 4 µM [6]: 11%
- Fu [7]: 0.209

SMILES: O=C(Nc1ccc(N2CCOCC2)c(Br)c1)NS(=O)(=O)O
- IC50 [1]: 8 nM

SMILES: O=C(CS(=O)(=O)O)Nc1cc(Br)cc(C(F)(F)F)c1
- IC50 [1]: 5200 nM

SMILES: O=C(CS(=O)(=O)O)Nc1cc(C(F)(F)F)cc(C(F)(F)F)c1
- IC50 [1]: 5400 nM

SMILES: Cc1c(Br)cc(NC(=O)C(c2ccccc2)S(=O)(=O)O)cc1Br (centres undefined)
- IC50 [24]: > 200000 nM
- IC50 [2]: 200 nM
- solubility [3]: 920 µg/mL (≈ 1990 µM)
- inhibition at 0.05 h (CYP2D6): 1%
- inhibition at 10 min (CYP2C9): 79%
- inhibition at 0.05 h (CYP3A4): 0%
- remaining at 0.5 h, 4 µM [4]: 34%
- remaining at 0.5 h, 4 µM [5]: 50%
- remaining at 0.5 h, 4 µM [6]: 59%
- Fu [7]: < 0.006
- AUC [8]: 5.24 µM·h
- AUC [9]: 2.09 µM·h
- Cmax [10]: 1020 nM
- Cmax [11]: 4940 nM
- fCmax [12]: < 6 nM
- fCmax [13]: < 30 nM
- Vdss [14]: 3.4 L/kg
- t1/2 [15]: 2 h
- t1/2 [16]: 5.2 h
- bioavailability ([17]; CD-1, mouse, plasma): 50%
- AUC [18]: 37.1 µM·h
- Cmax [19]: 6120 nM
- fCmax [20]: < 43 nM
- Tmax [21]: 2.7 h
- t1/2 [22]: 3 h
- IC50 [23]: 300 nM
